molecular target: T1, Zcchc11 enzyme (Homo sapiens, UniProt Q5TAX3); test: TUTase assay (Zcchc11 assay, Lin28a-dependent polyuridylation of pre-let-7); assay type: biochemical; conditions: LIN28A 10 nM, Zcchc11 0.2 nM, 5′-fluorescein pre-let-7 miRNA 2 nM, UTP 5 uM, room temperature, 30 minutes pre-incubation; read-out: Potency Lin28a-dep Z11 IC50
T1 construct: made in house; host or cells: HEK293 cells (Zcchc11); E. coli Rosetta II (LIN28A)
T1 sequence (Q5TAX3 212-1420): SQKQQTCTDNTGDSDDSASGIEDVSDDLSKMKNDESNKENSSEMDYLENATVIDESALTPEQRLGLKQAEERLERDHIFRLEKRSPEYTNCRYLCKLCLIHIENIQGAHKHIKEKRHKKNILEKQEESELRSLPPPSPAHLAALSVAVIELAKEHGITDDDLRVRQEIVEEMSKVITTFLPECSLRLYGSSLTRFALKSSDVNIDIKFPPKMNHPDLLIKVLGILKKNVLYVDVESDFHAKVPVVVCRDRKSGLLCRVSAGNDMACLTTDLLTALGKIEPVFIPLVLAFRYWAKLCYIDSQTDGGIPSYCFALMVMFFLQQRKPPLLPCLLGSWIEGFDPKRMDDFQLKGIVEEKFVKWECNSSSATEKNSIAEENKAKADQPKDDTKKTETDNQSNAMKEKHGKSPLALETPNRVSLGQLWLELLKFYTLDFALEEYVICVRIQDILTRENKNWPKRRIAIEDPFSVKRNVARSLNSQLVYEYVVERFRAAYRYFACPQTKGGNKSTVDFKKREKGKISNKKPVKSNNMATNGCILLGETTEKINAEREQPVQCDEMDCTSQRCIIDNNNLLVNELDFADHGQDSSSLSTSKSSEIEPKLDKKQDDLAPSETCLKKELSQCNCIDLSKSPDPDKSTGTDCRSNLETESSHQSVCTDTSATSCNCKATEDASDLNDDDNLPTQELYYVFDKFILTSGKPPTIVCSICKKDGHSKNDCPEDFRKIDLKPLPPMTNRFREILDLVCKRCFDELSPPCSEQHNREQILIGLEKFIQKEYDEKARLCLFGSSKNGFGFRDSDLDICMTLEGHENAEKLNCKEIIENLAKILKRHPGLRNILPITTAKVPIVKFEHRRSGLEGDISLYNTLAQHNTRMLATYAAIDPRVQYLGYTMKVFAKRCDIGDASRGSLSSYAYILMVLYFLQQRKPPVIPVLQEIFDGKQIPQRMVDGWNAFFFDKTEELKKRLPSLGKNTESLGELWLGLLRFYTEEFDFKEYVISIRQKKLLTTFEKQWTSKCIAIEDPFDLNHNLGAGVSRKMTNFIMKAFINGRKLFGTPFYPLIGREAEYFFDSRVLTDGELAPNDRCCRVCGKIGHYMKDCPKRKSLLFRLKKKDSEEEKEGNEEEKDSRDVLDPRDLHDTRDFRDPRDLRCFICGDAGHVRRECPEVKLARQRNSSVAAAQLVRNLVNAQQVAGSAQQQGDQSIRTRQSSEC
How it was run: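 Polyuridylation measured as fluorescein loss when a rhodamine-labelled A20 probe anneals to U-tails added to fluorescein pre-let-7 (2 nM). Reaction: truncated Zcchc11 0.2 nM, E. coli-made LIN28A 10 nM, UTP 5 uM, HEPES pH 7.3, room temperature. Initial rates fitted to four-parameter IC50.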

IC50 | Compound
≤ 1 µM | Cc1cccnc1OC[C@H]1CC(C)CN1c1cc2c(cc1F)c(=O)c(C(=O)O)cn2-c1ccc(O)cc1 (stereo partly drawn) [Example 7, 6-fluoro-1-(4-hydroxyphenyl)-7-((2R)-4-methyl-2-(((3-methylpyridin-2-yl)oxy)methyl)pyrrolidin-1-yl)-4-oxo-1,4-dihydroquinoline-3-carboxylic acid]
> 50 µM | O=C(O)c1cn(-c2ccccc2)c2cc(N3CCC[C@@H]3COc3ccccc3)c(F)cc2c1=O [Example 4, (R)-6-fluoro-4-oxo-7-(2-(phenoxymethyl)pyrrolidin-1-yl)-1-phenyl-1,4-dihydroquinoline-3-carboxylic acid]

same assay, conditions: Lin28a-dependent Zcchc11 (Z11) TUTase activity; read-out: Potency Lin28a-dep Z11 IC50

Compound | IC50
CN(C)C1CN(c2ccc(-n3cc(C(=O)O)c(=O)c4cc(F)c(N5[C@@H](COc6nc7c(ccn7C)cc6Cl)C[C@H]6C[C@H]65)cc43)cn2)C1 [Compound 337, 7-[(1R,3R,5R)-3-[{{5-Chloro-1-methyl-pyrrolo[2,3-b]pyridin-6-yl}oxy)methyl]-2-azabicyclo [3.1.0]hexan-2-yl]-1-{6-[3-(dimethyl-amino)azetidin-1-yl]pyridin-3-yl}-6-fluoro-4-oxoquinoline-3-carboxylic acid] | ≤ 1 µM
O=C(O)c1cn(C2CC2)c2cc(N3CCC[C@@H]3COc3ccccn3)c(Cl)cc2c1=O [Compound 111, (R)-6-chloro-1-cyclopropyl-4-oxo-7-(2-((pyridin-2-yloxy)methyl)pyrrolidin-1-yl)-1,4-dihydro-quinoline-3-carboxylic acid] | 1 to 10 µM
CC1(n2cc(C(=O)O)c(=O)c3cc(Cl)c(N4CCC[C@@H]4CN4CCOCC4)cc32)CC1 [Compound 114, (R)-6-chloro-1-(1-methylcyclo-propyl)-7-(2-(morpholino-methyl)pyrrolidin-1-yl)-4-oxo-1,4-dihydro-quinoline-3-carboxylic acid] | > 50 µM
CN(C(=O)[C@H]1CCCN1c1cc2c(cc1Cl)c(=O)c(C(=O)O)cn2-c1cnccn1)c1ccccn1 (racemic) [Compound 178, rac-(R)-6-chloro-7-(2-(methyl (pyridin-2-yl)carbamoyl)pyrrolidin-1-yl)-4-oxo-1-(pyrazin-2-yl)-1,4-dihydro-quinoline-3-carboxylic acid] | > 50 µM
Cc1cccnc1OC[C@H]1CCCN1c1cc2c(cc1F)c(=O)c(C(=O)O)cn2-c1ccc(F)c(O)c1 [Compound 121, (R)-6-fluoro-1-(4-fluoro-3-hydroxy-phenyl)-7-(2-(((3-methylpyridin-2-yl)oxy)methyl)pyrrolidin-1-yl)-4-oxo-1,4-dihydro-quinoline-3-carboxylic acid] | ≤ 1 µM
COCCN(C)C1CN(c2ccc(-n3cc(C(=O)O)c(=O)c4cc(F)c(N5CCC[C@@H]5COc5nc(OC)ccc5Cl)cc43)cn2)C1 [Compound 302, (R)-7-(2-(((3-chloro-6-methoxy-pyridin-2-yl)oxy)methyl)pyrrolidin-1-yl)-6-fluoro-1-(6-(3-((2-methoxyethyl) (methyl)amino)azetidin-1-yl)pyridin-3-yl)-4-oxo-1,4-dihydro-quinoline-3-carboxylic acid] | ≤ 1 µM

Now from value to molecule:

IC50 | Compound
≤ 1 µM | CN(C)C1CN(c2ccc(-n3cc(C(=O)O)c(=O)c4cc(Cl)c(N5CC(C)(C)C[C@@H]5COc5ncccc5Cl)cc43)cn2)C1 [Compound 254, 6-chloro-7-[(2R)-2-[[(3-chloropyridin-2-yl)oxy]methyl]-4,4-dimethyl-pyrrolidin-1-yl]-1-[6-[3-(dimethyl-amino)azetidin-1-yl]pyridin-3-yl]-4-oxoquinoline-3-carboxylic acid]
≤ 1 µM | CN(C)C1CN(c2ccc(-n3cc(C(=O)O)c(=O)c4cc(Cl)c(N5C6CCC5(COc5ncccc5Cl)CC6)cc43)cn2)C1 [Compound 282, 6-chloro-7-(1-(((3-chloropyridin-2-yl)oxy)methyl)-7-azabicyclo [2.2.1]heptan-7-yl)-1-(6-(3-(dimethyl-amino)azetidin-1-yl)pyridin-3-yl)-4-oxo-1,4-dihydro-quinoline-3-carboxylic acid]

same assay, conditions: Lin28a-dependent Zcchc11 (Z11) TUTase assay; read-out: Potency Lin28a-dep Z11 IC50

Compound | IC50
CN(C)CCNc1ccc(-n2cc(C(=O)O)c(=O)c3cc(C#N)c(N4CCC[C@@H]4COc4ncccc4Cl)cc32)cn1 [Example 570, (R)-7-(2-(((3-chloropyridin-2-yl)oxy)methyl)pyrrolidin-1-yl)-6-cyano-1-(6-((2-(dimethylamino)ethyl)amino)pyridin-3-yl)-4-oxo-1,4-dihydroquinoline-3-carboxylic acid] | ≤ 1 µM
Cc1cccnc1OC[C@H]1CCCN1c1cc2c(cc1F)c(=O)c(C(=O)O)cn2-c1ccc(NS(C)(=O)=O)cc1 [Example 412, (R)-6-fluoro-7-(2-(((3-methylpyridin-2-yl)oxy)methyl)pyrrolidin-1-yl)-1-(4-(methyl-sulfonamido)phenyl)-4-oxo-1,4-dihydroquinoline-3-carboxylic acid] | ≤ 1 µM
COCCN1CC(n2cc(C(=O)O)c(=O)c3cc(Cl)c(N4CCC[C@@H]4COc4ncccc4Cl)cc32)C1 [Example 470, (R)-6-chloro-7-(2-(((3-chloropyridin-2-yl)oxy)methyl)pyrrolidin-1-yl)-1-(1-(2-methoxy-ethyl)azetidin-3-yl)-1-(1-(2-methoxyethyl)azetidin-3-yl)-4-oxo-1,4-dihydroquinoline-3-carboxylic acid] | 1 to 10 µM
O=C(O)c1cn(-c2ccc(CO)cc2F)c2cc(N3CCC[C@@H]3COc3ccccn3)c(F)cc2c1=O [Example 374, (R)-6-fluoro-1-(2-fluoro-4-(hydroxymethyl)phenyl)-4-oxo-7-(2-((pyridin-2-yloxy)methyl)pyrrolidin-1-yl)-1,4-dihydroquinoline-3-carboxylic acid] | ≤ 1 µM

The next lines start with the values.

IC50 | Compound
≤ 1 µM | O=C(O)c1cn(-c2ccc(N3CCC3)nc2)c2cc(N3CCC[C@@H]3COc3ncccc3Cl)c(Cl)cc2c1=O [Example 422, (R)-1-(6-(azetidin-1-yl)pyridin-3-yl)-6-chloro-7-(2-(((3-chloropyridin-2-yl)oxy)methyl)pyrrolidin-1-yl)-4-oxo-1,4-dihydroquinoline-3-carboxylic acid]
≤ 1 µM | O=C(O)c1cn(-c2ccc(N3CCCC3)nc2)c2cc(N3CCC[C@@H]3COc3ncccc3Cl)c(Cl)cc2c1=O [Example 432, (R)-6-chloro-7-(2-(((3-chloropyridin-2-yl)oxy)methyl)pyrrolidin-1-yl)-4-oxo-1-(6-(pyrrolidin-1-yl)pyridin-3-yl)-1,4-dihydroquinoline-3-carboxylic acid]
≤ 1 µM | CN(C)C1CN(c2ccc(-n3cc(C(=O)O)c(=O)c4cc(Cl)c(N5CCC[C@@H]5COc5ncccc5Cl)nc43)cn2)C1 [Example 532, (R)-6-chloro-7-(2-(((3-chloropyridin-2-yl)oxy)methyl)pyrrolidin-1-yl)-1-(6-(3-(dimethylamino)azetidin-1-yl)pyridin-3-yl)-4-oxo-1,4-dihydro-1,8-naphthyridine-3-carboxylic acid]
≤ 1 µM | CN(C)C1CN(c2ccc(-n3cc(C(=O)O)c(=O)c4cc(Cl)c(N5CCC[C@@]5(C)COc5ncccc5Cl)cc43)cn2)C1 [Example 609, (S)-6-chloro-7-(2-(((3-chloropyridin-2-yl)oxy)methyl)-2-methylpyrrolidin-1-yl)-1-(6-(3-(dimethylamino)azetidin-1-yl)pyridin-3-yl)-4-oxo-1,4-dihydroquinoline-3-carboxylic acid]
